Biological target: TAR RNA
Assay: In vitro binding of resin-bound compounds to TAR RNA (OD260 of unbound RNA)
Set-up: species or system HIV
Conditions: in vitro assay; compounds of formula I on TentaGel beads incubated with TAR RNA overnight at 4° C. in TK buffer; read-out: Kd (nM), binding constants
Protocol: Binding of compounds of formula I and V to TAR RNA was measured by evaluating their inhibition of TAR-TAT complex formation in the presence of increasing levels of the compound to be tested. The compounds of formula I were tested in an in vitro assay; the compounds of formula V were tested in an in vivo assay.
The TAR RNA used corresponds to the minimal sequence required for TAT responsiveness in vivo. This 29-residue oligonucleotide has the sequence: 5′-[…]-3′ (SEQ ID NO.: 1). TAR RNA was prepared by in vitro transcription. A “top strand” single-stranded DNA oligomer having the sequence 5′-TAATACGACTCACTATAG-3′ (SEQ ID NO.: 2) was annealed to a “bottom strand” single-stranded DNA template having the following sequence: 3′-[…]-5′ (SEQ ID NO.: 3), thereby generating a double-stranded region corresponding to a promoter sequence recognized by T7 RNA polymerase. Transcription was carried out in transcription buffer (40 mM Tris-HCl, pH 8.1, 1 mM spermidine, 0.01% Triton®X-100, 5 mM dithiothreitol, 4 mM each of ATP, GTP, CTP, and UTP at 37° C. for 4 to 5 hours. Reactions were performed in a volume of 0.02 ml containing 8 pmole of template (top strand annealed to bottom strand) and 40 to 60 units of T7 RNA polymerase. Transcription was terminated by adding an equal volume of loading buffer (9M urea, 1 mmol EDTA, 0.1M bromophenol blue in 1XTBE buffer; TBE is 45 mmol trisborate at pH 8). Product RNA was purified by electrophoresis through a denaturing 20% polyacrylamide gel containing 8M urea. RNA was extracted from the gel, precipitated, dissolved in dithylpyrocarbonate-treated water, and stored at −20° C. until used.
In vitro assay conditions: Compounds AA-DU were synthesized on TentaGel S—NH2 (4.6 mmole). All Fmoc-amino acids were purchased from Bachem (Torrance, Calif.). 1-hydroxybenzotriazole (HOBT) and diisopropylcarbodiimide (DIPCDI) were obtained from Aldrich Chemical Co., Milwalkee, Wis. Piperidine and trifluoroacetic acid were purchased from Applied Biosystems Division, Perkin-Elmer. Compounds AA-DU were synthesized manually according to standard solid-phase peptide synthesis protocols. Coupling efficiencies of residues at each step were monitored by Kaiser test. Deprotection of trimer peptides was carried out in 10% water in trifluoroacetic acid (1 mL) for 16 hours at room temperature. After filtration of solvents, the resin was washed with water (1 mL×4), DMF (1 mL×4), dichloromethane (1 mL×4), and dried under reduced pressure. The compounds attached to the resin (10 beads) were placed in an Eppendorf tube and washed with TK buffer ([…]). The beads were suspended in TK buffer ([…]) and incubated with TAR RNA ([…]) overnight at 4° C. The suspension was centrifuged and the supernatant containing unbound RNA was transferred to a cuvette for OD260 measurements. The UV absorbance was measured by a Shimadzu UV-1601 spectrometer. Equilibrium concentrations of RNA were determined from these measurements. Given that the initial concentrations of ligand and RNA are known, and assuming simple bimolecular receptor/substrate binding, dissociation constant (KD) was calculated from straightforward equations.

Row | Kd [nM] | SMILES
1 | 491 | NCCCCCCCNCC(=O)N[C@H](CCCCN)COC(=O)N[C@H](CCCCN)COC(N)=O [Compound AF, Carbamic acid 6-amino-2-{6-amino-2-[2-(7-amino-heptylamino)-acetylamino]-hexyloxycarbonylamino}-hexyl ester]
2 | 403 | NCCCCNCC(=O)N[C@H](CCCCN)COC(=O)N[C@H](CCCCN)COC(N)=O [Compound AG, Carbamic acid 6-amino-2-{6-amino-2-[2-(4-amino-butylamino)-acetylamino]-hexyloxycarbonylamino}-hexyl ester]
3 | 460 | N=C(N)NCCC[C@H](N)COC(=O)N[C@H](CCCCN)COC(=O)N[C@H](CCCCN)COC(N)=O [Compound AH, Carbamic acid 6-amino-2-[6-amino-2-(2-amino-5-guanidino-pentyloxycarbonylamino)-hexyloxycarbonylamino]-hexyl ester]
4 | 4310 | NCCCC[C@H](N)COC(=O)N[C@@H](CCCCN)COC(=O)N[C@H](CCCCN)COC(N)=O [Compound AJ, Carbamic acid 6-amino-2-[6-amino-2-(2,6-diamino-hexyloxycarbonylamino)-hexyloxycarbonylamino]-hexyl ester]
5 | 1720 | NCCCC[C@@H](N)COC(=O)N[C@@H](CCCCN)COC(=O)N[C@H](CCCCN)COC(N)=O [Compound AK, Carbamic acid 6-amino-2-[6-amino-2-(2,6-diamino-hexyloxycarbonylamino)-hexyloxycarbonylamino]-hexyl ester]
6 | 2720 | NCCCC[C@H](COC(N)=O)NC(=O)OC[C@H](CCCCN)NC(=O)[C@@H](N)CCCCN [Compound AL, Carbamic acid 6-amino-2-[6-amino-2-(2,6-diamino-hexanoylamino)-hexyloxycarbonylamino]-hexyl ester]
7 | 183 | NCCCCCNCC(=O)N[C@@H](CCCCN)COC(=O)N[C@H](CCCCN)COC(N)=O [Compound AN, Carbamic acid 6-amino-2-{6-amino-2-[2-(5-amino-pentylamino)-acetylamino]-hexyloxycarbonylamino}-hexyl ester]
8 | 120 | NCCCCCCCNCC(=O)N[C@@H](CCCCN)COC(=O)N[C@H](CCCCN)COC(N)=O [Compound AO, Carbamic acid 6-amino-2-{6-amino-2-[2-(7-amino-heptylamino)-acetylamino]-hexyloxycarbonylamino}-hexyl ester]
9 | 1490 | NCCCCNCC(=O)N[C@@H](CCCCN)COC(=O)N[C@H](CCCCN)COC(N)=O [Compound AP, Carbamic acid 6-amino-2-{6-amino-2-[2-(4-amino-butylamino)-acetylamino]-hexyloxycarbonylamino}-hexyl ester]
10 | 2080 | N=C(N)NCCC[C@H](N)COC(=O)N[C@@H](CCCCN)COC(=O)N[C@H](CCCCN)COC(N)=O [Compound AQ, Carbamic acid 6-amino-2-[6-amino-2-(2-amino-5-guanidino-pentyloxycarbonylamino)-hexyloxycarbonylamino]-hexyl ester]
11 | 165 | NCCCC[C@@H](N)COC(=O)N(CCCCN)CC(=O)N[C@H](CCCCN)COC(N)=O [Compound AT, Carbamic acid 6-amino-2-{2-[(4-amino-butyl)-(2,6-diamino-hexyloxycarbonyl)-amino]-acetylamino}-hexyl ester]
12 | 147 | NCCCC[C@H](COC(N)=O)NC(=O)CN(CCCCN)C(=O)[C@@H](N)CCCCN [Compound AU, Carbamic acid 6-amino-2-{2-[(4-amino-butyl)-(2,6-diamino-hexanoyl)-amino]-acetylamino}-hexyl ester]
13 | 325 | NCCCC[C@H](COC(N)=O)NC(=O)CN(CCCCN)C(=O)[C@H](N)CCCCN [Compound AV, Carbamic acid 6-amino-2-{2-[(4-amino-butyl)-(2,6-diamino-hexanoyl)-amino]-acetylamino}-hexyl ester]
14 | 165 | NCCCCCCCNCC(=O)N(CCCCN)CC(=O)N[C@H](CCCCN)COC(N)=O [Compound AX, Carbamic acid 6-amino-2-(2-{(4-amino-butyl)-[2-(7-amino-heptylamino)-acetyl]-amino}-acetylamino)-hexyl ester]
15 | 403 | NCCCCNCC(=O)N(CCCCN)CC(=O)N[C@H](CCCCN)COC(N)=O [Compound AY, Carbamic acid 6-amino-2-(2-{(4-amino-butyl)-[2-(4-amino-butylamino)-acetyl]-amino}-acetylamino)-hexyl ester]
16 | 147 | N=C(N)NCCC[C@H](N)COC(=O)N(CCCCN)CC(=O)N[C@H](CCCCN)COC(N)=O [Compound AZ, Carbamic acid 6-amino-2-{2-[(4-amino-butyl)-(2-amino-5-guanidino-pentyloxycarbonyl)-amino]-acetylamino}-hexyl ester]
17 | 256 | NCCCCCN(CC(=O)N[C@H](CCCCN)COC(N)=O)C(=O)OC[C@@H](N)CCCCN [Compound BB, Carbamic acid 6-amino-2-{2-[(5-amino-pentyl)-(2,6-diamino-hexyloxycarbonyl)-amino]-acetylamino}-hexyl ester]
18 | 235 | NCCCCCN(CC(=O)N[C@H](CCCCN)COC(N)=O)C(=O)[C@@H](N)CCCCN [Compound BD, Carbamic acid 6-amino-2-{2-[(5-amino-pentyl)-(2,6-diamino-hexanoyl)-amino]-acetylamino}-hexyl ester]
19 | 678 | NCCCCCN(CC(=O)N[C@H](CCCCN)COC(N)=O)C(=O)[C@H](N)CCCCN [Compound BE, Carbamic acid 6-amino-2-{2-[(5-amino-pentyl)-(2,6-diamino-hexanoyl)-amino]-acetylamino}-hexyl ester]
20 | 147 | NCCCCCNCC(=O)N(CCCCCN)CC(=O)N[C@H](CCCCN)COC(N)=O [Compound BF, Carbamic acid 6-amino-2-(2-{(5-amino-pentyl)-[2-(5-amino-pentylamino)-acetyl]-amino}-acetylamino)-hexyl ester]
21 | 431 | NCCCCCCCNCC(=O)N(CCCCCN)CC(=O)N[C@H](CCCCN)COC(N)=O [Compound BG, Carbamic acid 6-amino-2-{2-[[2-(7-amino-heptylamino)-acetyl]-(5-amino-pentyl)-amino]-acetylamino}-hexyl ester]
22 | 2530 | NCCCCCN(CC(=O)N[C@H](CCCCN)COC(N)=O)C(=O)CNCCCCN [Compound BH, Carbamic acid 6-amino-2-{2-[[2-(4-amino-butylamino)-acetyl]-(5-amino-pentyl)-amino]-acetylamino}-hexyl ester]
23 | 202 | N=C(N)NCCC[C@H](N)COC(=O)N(CCCCCN)CC(=O)N[C@H](CCCCN)COC(N)=O [Compound BI, Carbamic acid 6-amino-2-{2-[(2-amino-5guanidino-pentyloxycarbonyl)-(5-amino-pentyl)-amino]-acetylamino}-hexyl ester]

Row | SMILES | Kd [nM]
24 | NCCCC[C@H](COC(N)=O)NC(=O)OC[C@@H](CCCCN)NC(=O)OC[C@H](N)CCC(N)=O [Compound AI, Carbamic acid 6-amino-2-[6-amino-2-(2-amino-4-carbamoyl-butoxycarbonylamino)-hexyloxycarbonylamino]-hexyl ester] | 603
25 | NCCCC[C@H](COC(N)=O)NC(=O)OC[C@H](CCCCN)NC(=O)OC[C@H](N)CCC(N)=O [Compound AR, Carbamic acid 6-amino-2-[6-amino-2-(2-amino-4-carbamoyl-butoxycarbonylamino)-hexyloxycarbonylamino]-hexyl ester] | 376
26 | NCCCC[C@H](COC(N)=O)NC(=O)CN(CCCCN)C(=O)OC[C@H](N)CCC(N)=O [Compound BA, Carbamic acid 6-amino-2-{2-[(4-amino-butyl)-(2-amino-4-carbamoyl-butoxycarbonyl)-amino]-acetylamino}-hexyl ester] | 460
27 | NCCCCCN(CC(=O)N[C@H](CCCCN)COC(N)=O)C(=O)OC[C@H](N)CCC(N)=O [Compound BJ, Carbamic acid 6-amino-2-{2-[(2-amino-4-carbamoyl-butoxycarbonyl)-(5-amino-pentyl)-amino]-acetylamino}-hexyl ester] | 202
